According to US12250946B2, “Antifungal composition having excellent antifungal activity even at low temperature” (Korea University Research and Business Foundation, priority 2020, dated 2025):

Tested on: Candida albicans biofilms
Test: Biofilm inhibitory activity by confocal laser scanning microscopy (SYTO 9 / PI staining)
Assay type: cell-based
Settings: 5 minutes treatment, 1.2 mM each component
Method: Candida albicans biofilms were formed on a stainless-steel coupon. Specifically, the […] were immersed in 90% (v/v) ethanol for 30 minutes for decontamination of stainless-steel coupons (1.5×1.0 cm2) and washed with sterile distilled water. Then, stainless-steel coupons were placed in a 12-well tissue culture plate containing 4.95 mL of SDB enrichment medium, and 50 uL of the mixed suspensions of albicans were dispensed and cultured at 30° C. for 48 hours to form Candida albicans biofilms. After forming the biofilm on each coupon, weakly attached cells, not the biofilm, were separated using 0.85% sterile physiological saline.
The antifungal activity of the antimicrobial mixture of the present disclosure was confirmed through confocal laser scanning microscopy analysis. For the biofilms of Candida species treated with each antimicrobial mixture, intact cells were stained with green fluorescent SYTO®9 (S-34854, Molecular Probes™, Thermo Fisher Scientific Inc., Pittsburgh, PA, USA; final concentration: 6.7 μM; excitation: 488 nm, emission: 498/501 nm), and damaged cells were detected by staining with red fluorescent propidium iodide (PI; P3566, Molecular Probes™; final concentration: 15 μM; excitation: 555 nm, emission: 617 nm). […]

CC(O)CO (centres unmarked) [compound 2, propylene glycol]
damage to the fungal cell membrane in the biofilms (SYTO 9 green / PI red fluorescence) (5° C., FIGS. 4A-4F): did not show significant damage to the fungal cell membrane | damage to the fungal cell membrane in the biofilms (SYTO 9 green / PI red fluorescence) (22° C., FIGS. 5A-5F): did not show significant damage to the fungal cell membrane
